In article doi:10.1101/208439v1 (biorxiv, 2017):
Read-outs that look alike come from different tables or passages of the source.

Experiments:
NSD2 = molecular target: T1, NSD2 (Homo sapiens, UniProt O96028); experiment: HotSpot [3H]SAM filter-binding methyltransferase assay; assay type: biochemical; details: nucleosomes […], […] SAM, pH […] DTT, […] °C
T1 construct: full length (residues 2-1365), N-terminal His tag, insect cell/baculovirus
T1 sequence (O96028 2-1365): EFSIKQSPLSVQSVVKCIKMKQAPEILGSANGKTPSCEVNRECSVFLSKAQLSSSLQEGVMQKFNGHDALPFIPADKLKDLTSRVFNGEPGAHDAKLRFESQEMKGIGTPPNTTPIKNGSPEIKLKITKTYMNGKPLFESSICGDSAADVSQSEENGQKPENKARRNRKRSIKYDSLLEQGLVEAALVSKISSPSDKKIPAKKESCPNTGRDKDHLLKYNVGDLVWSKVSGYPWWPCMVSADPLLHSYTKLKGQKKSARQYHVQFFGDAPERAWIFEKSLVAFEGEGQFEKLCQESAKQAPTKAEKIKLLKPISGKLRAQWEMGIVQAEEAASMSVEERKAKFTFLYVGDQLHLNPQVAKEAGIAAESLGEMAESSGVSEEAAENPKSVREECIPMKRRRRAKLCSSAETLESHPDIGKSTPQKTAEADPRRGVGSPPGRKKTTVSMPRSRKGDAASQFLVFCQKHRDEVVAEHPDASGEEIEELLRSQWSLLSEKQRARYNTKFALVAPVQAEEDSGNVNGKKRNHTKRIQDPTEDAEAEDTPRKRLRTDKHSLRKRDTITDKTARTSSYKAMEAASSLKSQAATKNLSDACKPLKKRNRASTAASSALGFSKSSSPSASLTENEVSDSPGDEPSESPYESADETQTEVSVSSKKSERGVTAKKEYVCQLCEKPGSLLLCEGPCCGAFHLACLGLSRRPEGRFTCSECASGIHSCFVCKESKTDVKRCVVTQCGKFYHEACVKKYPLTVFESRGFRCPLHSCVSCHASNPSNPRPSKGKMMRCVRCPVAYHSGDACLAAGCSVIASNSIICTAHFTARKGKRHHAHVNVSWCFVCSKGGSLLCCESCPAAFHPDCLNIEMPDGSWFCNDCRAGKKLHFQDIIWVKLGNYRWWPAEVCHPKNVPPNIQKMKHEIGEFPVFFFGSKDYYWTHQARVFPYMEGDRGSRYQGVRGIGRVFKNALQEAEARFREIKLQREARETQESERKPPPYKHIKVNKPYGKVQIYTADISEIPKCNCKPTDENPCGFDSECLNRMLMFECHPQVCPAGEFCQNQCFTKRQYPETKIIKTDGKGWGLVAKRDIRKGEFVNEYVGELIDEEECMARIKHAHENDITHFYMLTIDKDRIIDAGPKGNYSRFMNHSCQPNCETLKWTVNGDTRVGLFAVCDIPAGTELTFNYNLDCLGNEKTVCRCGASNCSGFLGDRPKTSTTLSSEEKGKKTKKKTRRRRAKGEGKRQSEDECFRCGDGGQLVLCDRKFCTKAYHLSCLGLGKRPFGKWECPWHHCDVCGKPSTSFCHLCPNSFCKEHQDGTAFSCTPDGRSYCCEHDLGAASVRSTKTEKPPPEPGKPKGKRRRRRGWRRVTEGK

EZH2 Complex [1] = molecular target: T2, EZH2 Complex (Homo sapiens, UniProt Q15910, Y641F); experiment: as above; assay type: biochemical
T2 construct: five-member complex, Flag-EED, other subunits His-tagged, insect cells; with Zinc finger protein AEBP2; Polycomb protein EED; Polycomb protein SUZ12

EZH2 Complex [2] = molecular target: T3, EZH2 Complex (Homo sapiens, UniProt Q15910); experiment: as above; assay type: biochemical
T3 construct: five-member complex, Flag-EED, other subunits His-tagged, insect cells; with Zinc finger protein AEBP2; Polycomb protein EED; Polycomb protein SUZ12

DNMT3a = DNMT3a (Homo sapiens, UniProt Q9Y6K1); experiment: biochemical
Sequence of DNMT3a (Q9Y6K1 whole entry, looked up): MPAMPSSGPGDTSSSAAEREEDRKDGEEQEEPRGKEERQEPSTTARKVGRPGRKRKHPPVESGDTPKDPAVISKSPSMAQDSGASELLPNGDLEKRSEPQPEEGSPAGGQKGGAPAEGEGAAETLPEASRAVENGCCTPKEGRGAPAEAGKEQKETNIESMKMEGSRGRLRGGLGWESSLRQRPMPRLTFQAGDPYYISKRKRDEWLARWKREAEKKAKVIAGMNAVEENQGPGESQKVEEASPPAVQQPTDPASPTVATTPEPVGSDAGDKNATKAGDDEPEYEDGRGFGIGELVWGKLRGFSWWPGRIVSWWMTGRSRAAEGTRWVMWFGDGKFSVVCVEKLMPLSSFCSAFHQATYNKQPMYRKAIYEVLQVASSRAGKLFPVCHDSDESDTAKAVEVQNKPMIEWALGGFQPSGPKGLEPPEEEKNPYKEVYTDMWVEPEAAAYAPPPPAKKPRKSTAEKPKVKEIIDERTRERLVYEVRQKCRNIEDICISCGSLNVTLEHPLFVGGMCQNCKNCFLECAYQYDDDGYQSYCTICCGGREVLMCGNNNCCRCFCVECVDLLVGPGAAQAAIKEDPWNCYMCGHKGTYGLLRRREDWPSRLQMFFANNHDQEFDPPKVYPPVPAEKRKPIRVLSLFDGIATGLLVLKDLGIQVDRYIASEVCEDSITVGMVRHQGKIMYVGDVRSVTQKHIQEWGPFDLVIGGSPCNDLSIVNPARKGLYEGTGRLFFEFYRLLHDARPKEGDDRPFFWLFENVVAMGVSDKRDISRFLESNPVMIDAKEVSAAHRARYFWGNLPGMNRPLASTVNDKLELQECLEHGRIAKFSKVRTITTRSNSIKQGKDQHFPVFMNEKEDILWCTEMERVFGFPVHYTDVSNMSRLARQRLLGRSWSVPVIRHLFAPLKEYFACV

SMYD2 = SMYD2 (Homo sapiens, UniProt Q9NRG4); experiment: biochemical
Sequence of SMYD2 (Q9NRG4 whole entry): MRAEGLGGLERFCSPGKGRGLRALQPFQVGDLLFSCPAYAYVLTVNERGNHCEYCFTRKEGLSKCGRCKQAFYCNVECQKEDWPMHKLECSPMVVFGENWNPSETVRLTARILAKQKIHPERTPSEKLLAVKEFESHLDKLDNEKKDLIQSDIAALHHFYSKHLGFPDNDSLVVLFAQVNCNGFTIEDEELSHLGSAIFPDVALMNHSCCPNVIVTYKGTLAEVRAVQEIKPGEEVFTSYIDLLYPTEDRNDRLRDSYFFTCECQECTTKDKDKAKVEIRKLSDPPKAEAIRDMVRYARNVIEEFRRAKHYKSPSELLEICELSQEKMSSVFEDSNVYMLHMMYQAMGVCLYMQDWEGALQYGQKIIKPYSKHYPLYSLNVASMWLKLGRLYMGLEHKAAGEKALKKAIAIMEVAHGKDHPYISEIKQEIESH

DNMT1 = DNMT1 (Homo sapiens, UniProt P26358); experiment: biochemical
Sequence of DNMT1 (P26358 whole entry): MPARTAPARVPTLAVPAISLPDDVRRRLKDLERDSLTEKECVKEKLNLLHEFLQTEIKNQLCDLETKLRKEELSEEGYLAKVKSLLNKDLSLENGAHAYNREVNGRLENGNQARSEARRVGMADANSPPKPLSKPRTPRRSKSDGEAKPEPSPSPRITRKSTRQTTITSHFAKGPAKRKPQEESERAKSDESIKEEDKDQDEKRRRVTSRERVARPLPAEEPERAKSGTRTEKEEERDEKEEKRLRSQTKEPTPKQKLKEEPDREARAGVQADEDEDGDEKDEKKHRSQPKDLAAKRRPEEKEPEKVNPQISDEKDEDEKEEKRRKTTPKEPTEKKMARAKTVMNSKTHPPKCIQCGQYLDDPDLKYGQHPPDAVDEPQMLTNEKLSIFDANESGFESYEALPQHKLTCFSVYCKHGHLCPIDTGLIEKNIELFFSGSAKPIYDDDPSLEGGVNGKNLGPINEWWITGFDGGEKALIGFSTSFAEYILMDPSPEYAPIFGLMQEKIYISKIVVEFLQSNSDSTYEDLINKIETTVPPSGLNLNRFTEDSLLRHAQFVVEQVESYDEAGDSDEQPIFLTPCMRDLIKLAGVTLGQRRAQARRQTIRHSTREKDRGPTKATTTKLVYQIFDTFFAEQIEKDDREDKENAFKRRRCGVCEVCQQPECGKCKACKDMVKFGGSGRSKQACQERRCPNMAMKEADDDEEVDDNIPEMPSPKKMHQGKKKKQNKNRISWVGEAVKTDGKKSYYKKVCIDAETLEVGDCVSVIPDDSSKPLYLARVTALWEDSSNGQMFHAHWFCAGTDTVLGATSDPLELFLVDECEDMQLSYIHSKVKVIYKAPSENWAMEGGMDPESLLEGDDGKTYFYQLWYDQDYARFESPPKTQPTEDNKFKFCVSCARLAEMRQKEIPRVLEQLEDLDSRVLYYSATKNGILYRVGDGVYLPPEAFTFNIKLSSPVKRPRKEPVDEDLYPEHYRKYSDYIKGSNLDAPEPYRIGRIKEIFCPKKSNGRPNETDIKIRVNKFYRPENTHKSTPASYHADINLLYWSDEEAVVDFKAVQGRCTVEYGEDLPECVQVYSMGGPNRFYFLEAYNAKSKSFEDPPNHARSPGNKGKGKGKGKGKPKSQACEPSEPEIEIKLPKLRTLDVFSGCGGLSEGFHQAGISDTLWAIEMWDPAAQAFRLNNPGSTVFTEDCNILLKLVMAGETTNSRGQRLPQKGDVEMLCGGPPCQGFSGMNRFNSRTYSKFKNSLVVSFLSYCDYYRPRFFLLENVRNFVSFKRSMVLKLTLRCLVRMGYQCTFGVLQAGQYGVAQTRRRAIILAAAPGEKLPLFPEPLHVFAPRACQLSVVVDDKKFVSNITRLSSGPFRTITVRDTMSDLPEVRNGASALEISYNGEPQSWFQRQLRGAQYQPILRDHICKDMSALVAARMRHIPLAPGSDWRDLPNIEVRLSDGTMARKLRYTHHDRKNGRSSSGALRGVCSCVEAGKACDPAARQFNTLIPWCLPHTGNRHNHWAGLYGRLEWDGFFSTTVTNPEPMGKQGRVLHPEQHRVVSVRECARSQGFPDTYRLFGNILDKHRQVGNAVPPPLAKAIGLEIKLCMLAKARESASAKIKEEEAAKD

SET8 = molecular target: T4, SET8 (Homo sapiens, UniProt Q9NQR1); experiment: biochemical
T4 construct: gene KMT5A
T4 sequence (Q9NQR1 1-393): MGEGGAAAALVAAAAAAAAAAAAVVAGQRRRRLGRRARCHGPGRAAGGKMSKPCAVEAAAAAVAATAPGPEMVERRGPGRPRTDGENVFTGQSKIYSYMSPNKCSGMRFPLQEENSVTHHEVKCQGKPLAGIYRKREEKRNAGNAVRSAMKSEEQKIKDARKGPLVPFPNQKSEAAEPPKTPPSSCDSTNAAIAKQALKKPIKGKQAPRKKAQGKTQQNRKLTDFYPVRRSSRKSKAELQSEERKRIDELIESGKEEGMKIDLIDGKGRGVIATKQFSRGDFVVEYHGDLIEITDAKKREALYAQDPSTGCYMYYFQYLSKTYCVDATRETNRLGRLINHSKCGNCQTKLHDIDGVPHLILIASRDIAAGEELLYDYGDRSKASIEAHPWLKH

SETD2 = molecular target: T5, SETD2 (Homo sapiens, UniProt Q9BYW2); experiment: HotSpot [3H]SAM filter-binding methyltransferase assay; assay type: biochemical; parameters: residues 1434-1711, N-terminal GST fusion, E. coli
T5 sequence (Q9BYW2 1434-1711): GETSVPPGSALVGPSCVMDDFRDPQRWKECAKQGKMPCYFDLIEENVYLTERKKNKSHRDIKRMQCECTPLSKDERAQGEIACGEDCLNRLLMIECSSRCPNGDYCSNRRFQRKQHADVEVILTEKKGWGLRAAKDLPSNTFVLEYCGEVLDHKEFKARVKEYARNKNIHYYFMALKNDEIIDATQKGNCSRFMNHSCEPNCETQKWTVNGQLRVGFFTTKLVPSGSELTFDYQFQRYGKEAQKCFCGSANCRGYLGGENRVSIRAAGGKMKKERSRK

MLL1 Complex = MLL1 Complex (Homo sapiens, UniProt Q03164); experiment: as above; assay type: biochemical; parameters: gene KMT2A; five-member complex, His-tagged subunits, E. coli; ASH2L isoform of NM_001105214; with WD repeat-containing protein 5; Set1/Ash2 histone methyltransferase complex subunit ASH2; Protein dpy-30 homolog
Sequence of MLL1 Complex (Q9UBL3 96-628): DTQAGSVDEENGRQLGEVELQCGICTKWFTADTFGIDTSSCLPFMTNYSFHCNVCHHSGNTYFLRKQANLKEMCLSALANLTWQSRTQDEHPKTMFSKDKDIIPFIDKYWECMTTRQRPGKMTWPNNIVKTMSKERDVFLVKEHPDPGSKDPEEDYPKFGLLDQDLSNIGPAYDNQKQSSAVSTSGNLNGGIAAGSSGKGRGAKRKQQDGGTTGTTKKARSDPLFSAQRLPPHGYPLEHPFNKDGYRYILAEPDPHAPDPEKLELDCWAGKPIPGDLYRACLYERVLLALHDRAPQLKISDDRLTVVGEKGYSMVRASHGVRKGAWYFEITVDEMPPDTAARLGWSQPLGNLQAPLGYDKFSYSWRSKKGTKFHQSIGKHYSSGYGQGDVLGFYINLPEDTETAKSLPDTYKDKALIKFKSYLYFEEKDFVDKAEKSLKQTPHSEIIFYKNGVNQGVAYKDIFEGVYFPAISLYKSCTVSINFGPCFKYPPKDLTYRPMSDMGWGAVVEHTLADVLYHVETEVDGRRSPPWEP
Sequence of MLL1 Complex (Q03164 3745-3969): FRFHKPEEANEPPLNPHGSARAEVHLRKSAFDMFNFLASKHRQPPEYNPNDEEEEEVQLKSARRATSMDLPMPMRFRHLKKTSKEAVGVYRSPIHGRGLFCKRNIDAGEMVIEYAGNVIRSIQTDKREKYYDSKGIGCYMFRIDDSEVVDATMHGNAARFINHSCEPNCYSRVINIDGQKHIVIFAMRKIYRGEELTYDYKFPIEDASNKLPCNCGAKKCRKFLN
Sequence of MLL1 Complex (Q9C005 whole entry, further chain, canonical isoform): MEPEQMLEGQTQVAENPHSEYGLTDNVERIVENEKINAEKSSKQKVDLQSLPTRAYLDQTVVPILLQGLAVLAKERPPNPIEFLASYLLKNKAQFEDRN
Sequence of MLL1 Complex (Q15291 whole entry, further chain, canonical isoform): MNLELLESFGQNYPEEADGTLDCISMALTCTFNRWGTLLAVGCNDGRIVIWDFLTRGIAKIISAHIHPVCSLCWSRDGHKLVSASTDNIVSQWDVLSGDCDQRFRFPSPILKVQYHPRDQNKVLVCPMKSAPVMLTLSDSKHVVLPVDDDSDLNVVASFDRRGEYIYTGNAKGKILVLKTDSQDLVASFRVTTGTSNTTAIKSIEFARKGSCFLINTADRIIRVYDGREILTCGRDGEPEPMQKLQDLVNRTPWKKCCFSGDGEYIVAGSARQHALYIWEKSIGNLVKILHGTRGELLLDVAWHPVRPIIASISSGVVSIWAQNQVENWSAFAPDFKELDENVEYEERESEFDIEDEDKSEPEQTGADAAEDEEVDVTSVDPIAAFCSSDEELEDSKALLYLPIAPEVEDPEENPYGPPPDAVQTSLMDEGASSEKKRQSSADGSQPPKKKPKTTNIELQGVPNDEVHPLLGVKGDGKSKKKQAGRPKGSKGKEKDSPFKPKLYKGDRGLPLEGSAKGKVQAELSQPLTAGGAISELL

[3] = read-out: DA3003-1 IC50, inhibitor
[4] = core histone, […] SAM, pH […] EDTA, […] DTT, […] °C, single experiment
[5] = nucleosomes, […] SAM, pH […] MgCl2, […] DTT, […] °C, single experiment

IC50 (NSD2) [µM] | IC50 (EZH2 Complex [1]) [µM] | IC50 (EZH2 Complex [2]) [µM] | IC50 (DNMT3a) [µM] | IC50 (SMYD2) [µM] | IC50 (DNMT1) [µM] | IC50 (SET8) [µM] | IC50 (SETD2) [µM] | IC50 (MLL1 Complex) [µM] | IC50 (NSD2; compound is redox-active) [µM] | IC50 (DNMT3a; [3]) [µM] | IC50 (SMYD2; [3]) [µM] | IC50 (DNMT1; [3]) [µM] | IC50 (SET8; [3]) [µM] | IC50 (EZH2 Complex [1]; [4]) [µM] | IC50 (EZH2 Complex [2]; [4]) [µM] | IC50 (SETD2; [5]) [µM] | IC50 (MLL1 Complex; [5]) [µM] | SMILES
1.7 | 21 | 23 | 18 | 44 | 44 | 5.3 | 3.3 | 0.72 |  |  |  |  |  |  |  |  |  | CC1(C)CCC(CN2CCN(c3ccc(C(=O)NS(=O)(=O)c4ccc(NCC5CCOCC5)c([N+](=O)[O-])c4)c(Oc4cnc5[nH]ccc5c4)c3)CC2)=C(c2ccc(Cl)cc2)C1 [ABT-199]
 | 0.68 | 0.46 |  |  |  |  | 0.21 | 0.25 | 0.17 | 1.1 | 1.7 | 1.7 | 4.4 |  |  |  |  | O=C1C(Cl)=C(NCCN2CCOCC2)C(=O)c2ncccc21 [DA3003-1]
8.5 |  |  | 16 | 21 | 12 | 44 |  |  |  |  |  |  |  | 31 | 40 | 13 | 3.2 | COc1cccc(-n2nc(C(=O)O)cc2-c2ccc(C3CCCCC3)c(Cl)c2)c1 [TC LPA5 4]
